Where “and” joins values, the source holds several entries; their conditions need not be identical. Equal values may be shown once.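 Five compound concentrations were applied to cells in 96-well plates for 48 hours; endpoints were derived by simple linear interpolation of the resulting dose-response curve. The concentration for 50% growth inhibition is given as GI50. TGI: total growth inhibition.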
Tests used:
Experiment in all cases: NCI tumour cell line growth inhibition, 48 h
[1] = test system: NCI-H226 lung
[2] = test system: DLD-1 colon
[3] = test system: SK-OV-3 ovarian
[4] = test system: TK-10 renal
[5] = test system: UO-31 renal
[6] = test system: HT29 colon
[7] = test system: MOLT-4 leukemia
[8] = test system: LXFL 529 NSCLC
[9] = test system: UACC-257 melanoma
[10] = test system: HOP-92 NSCLC

SMILES: COc1cc(C(=O)C/C(CCC(=O)Nc2ccccc2[N+](=O)[O-])=N\NC(=O)CC#N)ccc1O
- TGI [1]: > 100 µM
- TGI [2]: > 100 µM
- TGI [3]: > 100 µM
- TGI [4]: > 100 µM
- TGI [5]: > 100 µM
- TGI [6]: > 100 µM
- TGI [7]: > 100 µM
- TGI [8]: > 100 µM
- TGI [9]: > 100 µM

SMILES: CC(=O)OC1CCn2nnc(CO[Si](C)(C)C(C)(C)C)c21 (stereo unspecified)
- TGI [1]: > 100 µM
- TGI [2]: > 100 µM
- TGI [3]: > 100 µM
- TGI [4]: > 100 µM
- TGI [5]: > 100 µM
- TGI [6]: > 100 µM
- TGI [7]: > 100 µM
- TGI [8]: > 100 µM
- TGI [9]: > 100 µM

SMILES: Nc1ncnc2[nH]ncc12
- GI50 [1]: 4.04 µM
- TGI [1]: > 100 µM
- GI50 [10]: 0.431 µM
- TGI [10]: 3.61 µM
- GI50 [3]: 0.315 µM
- TGI [3]: 4.71 µM
- GI50 [4]: 0.589 µM
- TGI [4]: > 47.6 µM
- GI50 [5]: 0.232 µM
- TGI [5]: 0.916 µM
- GI50 [6]: 1.83 µM
- TGI [6]: > 94.5 µM
- GI50 [7]: 2.64 µM
- TGI [7]: > 100 µM
- GI50 [9]: 0.983 µM
- TGI [9]: 14.2 µM

SMILES: C=CC(=O)Nc1cccc(C)c1Nc1cc(-c2cccnc2Cc2c(C)c(OC)cc(OC)c2C)ncn1
- GI50 [1]: 10.5 µM
- TGI [1]: 63 µM
- GI50 [10]: 9.91 µM
- TGI [10]: 47.3 µM
- GI50 [3]: 34.5 µM
- TGI [3]: > 100 µM
- GI50 [4]: 10.8 µM
- TGI [4]: 99.4 µM
- GI50 [5]: 18.4 µM
- TGI [5]: > 100 µM
- GI50 [6]: 20.3 µM
- TGI [6]: > 100 µM
- GI50 [7]: 3.6 µM
- TGI [7]: > 100 µM
- GI50 [9]: 23.7 µM
- TGI [9]: > 100 µM

SMILES: C=CCOC1OC(CO[Si](C)(C)C(C)(C)C)C(OCc2ccccc2)C(OCc2ccccc2)C1OCc1ccccc1 (stereo unspecified)
- TGI [1]: > 100 µM
- TGI [10]: > 100 µM
- TGI [3]: > 100 µM
- TGI [4]: > 100 µM
- TGI [5]: > 100 µM
- TGI [6]: > 100 µM
- TGI [7]: > 100 µM
- TGI [9]: > 100 µM

SMILES: CCC1CN2CCc3cc(OC)c(OC)cc3C2CC1CC1c2cc(OC)c(OC)cc2CCN1C(=O)C1CCCN1C(=O)OCc1ccccc1 (stereo unspecified)
- TGI [1]: 30.9 µM
- TGI [10]: 22 µM
- TGI [2]: 31 µM
- TGI [4]: 38.6 µM
- TGI [5]: 26 µM
- TGI [6]: 27.4 µM
- TGI [8]: 29.9 µM
- TGI [9]: 30.8 µM

SMILES: Cc1ccc(NC(=O)/C=C/c2ccccc2)c(C(N)=O)c1
- GI50 [1]: 6.46 µM
- TGI [1]: > 100 µM
- GI50 [10]: 15.5 µM
- TGI [10]: > 100 µM
- GI50 [3]: 3.26 µM
- TGI [3]: 19.1 µM
- GI50 [4]: 17.1 µM
- TGI [4]: > 100 µM
- GI50 [5]: 10.3 µM
- TGI [5]: > 60 µM
- GI50 [6]: 2.36 µM
- TGI [6]: 30.8 µM
- GI50 [7]: 3.34 µM
- TGI [7]: > 74.1 µM
- GI50 [9]: 22.5 µM
- TGI [9]: > 95.3 µM

SMILES: C[C@]12CCC3[C@@H](CC[C@@H]4c5nonc5CC[C@]34C)C1CCC(=O)N2 (stereo partly specified)
- TGI [1]: > 100 µM
- GI50 [10]: 40.4 µM
- TGI [10]: > 95.1 µM
- TGI [3]: > 100 µM
- TGI [4]: > 100 µM
- TGI [5]: > 100 µM
- TGI [6]: > 100 µM
- GI50 [7]: > 59.7 µM
- TGI [7]: > 100 µM
- TGI [8]: > 100 µM
- TGI [9]: > 100 µM

SMILES: O=S(=O)(NCCNC/C=C/c1ccc(Br)cc1)c1cccc2cnccc12
- GI50 [1]: 12.3 µM and 13.7 µM
- TGI [1]: 30.7 µM and 34.5 µM
- GI50 [10]: 1.59 µM and 2.8 µM
- TGI [10]: 9.81 µM and 11.8 µM
- GI50 [3]: 7.26 µM and 11.7 µM
- TGI [3]: 21.1 µM and 25.1 µM
- GI50 [4]: 5.92 µM and 10.3 µM
- TGI [4]: 19.6 µM and 23 µM
- GI50 [5]: 4.8 µM and 5.17 µM
- TGI [5]: 18.4 µM and 20.2 µM
- GI50 [6]: 5.44 µM and 13.7 µM
- TGI [6]: 18.9 µM and 28.8 µM
- GI50 [7]: > 20.4 µM and 7.23 µM
- TGI [7]: > 45 µM and 27.7 µM
- GI50 [9]: 7.83 µM and 14.3 µM
- TGI [9]: 20.8 µM and 27.5 µM

SMILES: N/C(=N\N=C\c1ccc(-c2ccccc2)cc1)N[N+](=O)[O-]
- GI50 [1]: > 28.1 µM
- TGI [1]: > 100 µM
- GI50 [10]: 2.18 µM
- TGI [10]: > 100 µM
- GI50 [3]: 3.87 µM
- TGI [3]: > 100 µM
- GI50 [4]: > 100 µM
- TGI [4]: > 100 µM
- GI50 [5]: 6.22 µM
- TGI [5]: > 100 µM
- GI50 [6]: 3.59 µM
- TGI [6]: > 100 µM
- GI50 [7]: 5.76 µM
- TGI [7]: > 100 µM
- GI50 [9]: > 100 µM
- TGI [9]: > 100 µM

SMILES: Cc1cc2c3ccc(C)[n+](C)c3ccc2n1C
- GI50 [1]: 12.9 µM
- TGI [1]: 49.8 µM
- GI50 [10]: 1.97 µM
- TGI [10]: 19.6 µM
- GI50 [3]: 2.88 µM
- TGI [3]: 9.41 µM
- GI50 [4]: 13 µM
- TGI [4]: > 100 µM
- GI50 [5]: 3.79 µM
- TGI [5]: > 100 µM
- GI50 [6]: 3.07 µM
- TGI [6]: 23.8 µM
- GI50 [7]: 3.12 µM
- TGI [7]: 27.4 µM
- GI50 [9]: 3.45 µM
- TGI [9]: 16.1 µM

SMILES: O=C(NN1C(=O)CSC12CCCCC2)c1[nH]c2ccc(F)cc2c1-c1ccccc1
- GI50 [1]: 28.1 µM
- TGI [1]: 77 µM
- GI50 [10]: 17.8 µM
- TGI [10]: 40.9 µM
- GI50 [3]: 35.8 µM
- TGI [3]: > 100 µM
- GI50 [4]: 19.4 µM
- TGI [4]: 35.7 µM
- GI50 [5]: 27.8 µM
- TGI [5]: 80.9 µM
- GI50 [6]: 17.8 µM
- TGI [6]: 36.2 µM
- GI50 [7]: 13.9 µM
- TGI [7]: 41.7 µM
- GI50 [9]: 23.3 µM
- TGI [9]: 56.9 µM

SMILES: O=C1C(=O)c2c(nc3ccc(Cl)cn23)-c2ccccc21
- GI50 [1]: 1.65 µM
- TGI [1]: 3.49 µM
- GI50 [10]: 0.674 µM
- TGI [10]: 1.98 µM
- GI50 [3]: 1.71 µM
- TGI [3]: 3.31 µM
- GI50 [4]: 1.8 µM
- TGI [4]: 3.59 µM
- GI50 [5]: 0.306 µM
- TGI [5]: 3.47 µM
- GI50 [6]: 3.26 µM
- TGI [6]: 19.8 µM
- GI50 [7]: 0.308 µM
- GI50 [9]: 0.284 µM
- TGI [9]: 0.803 µM

SMILES: CNC(=O)OCc1c(COC(=O)NC)c(C)n(-c2ccc(Br)cc2)c1C
- TGI [1]: 4.59 µM
- TGI [10]: 31 µM
- TGI [3]: 34.2 µM
- TGI [4]: 51.5 µM
- TGI [5]: 19.5 µM
- TGI [6]: 22.4 µM
- TGI [7]: > 100 µM
- TGI [9]: 32.3 µM

SMILES: O[C@H]1CO[C@H]2[C@@H]1OC[C@@H]2Oc1ccc(Nc2ccnc(Nc3ccc(O[C@H]4CO[C@H]5[C@@H]4OC[C@@H]5O)c(Cl)c3)n2)cc1Cl
- GI50 [1]: 1.48 µM
- TGI [1]: 3.61 µM
- GI50 [10]: 1.52 µM
- TGI [10]: 3.15 µM
- GI50 [3]: 2.53 µM
- TGI [3]: 10 µM
- GI50 [4]: 2.14 µM
- TGI [4]: 10.5 µM
- GI50 [5]: 1.55 µM
- TGI [5]: 3.06 µM
- GI50 [6]: 2.48 µM
- TGI [6]: 15.4 µM
- GI50 [7]: 1.72 µM
- TGI [7]: 6.04 µM
- GI50 [9]: 2.7 µM
- TGI [9]: 10.2 µM

SMILES: C=C1COC(/C=C(\C)CC/C=C(\C)CCl)C1 (stereo unspecified)
- TGI [1]: > 100 µM
- TGI [10]: > 100 µM
- TGI [2]: > 100 µM
- TGI [3]: > 100 µM
- TGI [4]: > 100 µM
- TGI [5]: > 100 µM
- TGI [6]: > 100 µM
- TGI [7]: > 100 µM
- TGI [8]: > 100 µM

SMILES: CC(CN1CCN(CCOCCO)CC1)CN1c2ccccc2Sc2ccc(Cl)cc21 (stereo unspecified)
- GI50 [1]: 11.5 µM
- TGI [1]: 36.8 µM
- GI50 [10]: 1.01 µM
- TGI [10]: 4.63 µM
- GI50 [3]: 8.87 µM
- TGI [3]: 21.8 µM
- GI50 [4]: 2.31 µM
- TGI [4]: 6.45 µM
- GI50 [5]: 3.3 µM
- TGI [5]: 16.4 µM
- GI50 [6]: 1.79 µM
- TGI [6]: 3.36 µM
- GI50 [7]: 2.49 µM
- TGI [7]: 6.54 µM
- GI50 [9]: 1.49 µM
- TGI [9]: 3.11 µM

From PubChem BioAssay (NCI)
